Legend:
Sprague-Dawley rats = experiment: Low-intensity tail flick in the rat; assay type: in vivo; conditions: for inhibition in vivo at 4.64 mg/kg / inhibition in vivo at 21.5 mg/kg / inhibition in vivo at 10 mg/kg / ED50: po; for inhibition in vivo at 4.64 mg/kg / inhibition in vivo at 21.5 mg/kg / inhibition in vivo at 10 mg/kg: read-out: Low-intensity tail flick rat p.o. % effect (dose [mg/kg])
Description: Low-Intensity Tail Flick in the Rat
The antinociceptive effectiveness of the test substance towards an acute, noxious thermal stimulus was studied in the focal ray (tail flick) test in the rat according to the method of D'Amour and Smith (J. Pharm. Exp. Ther. 72, 74 79 (1941)). Male Sprague-Dawley rats (breeder: Janvier, Le Genest St. Isle, France) weighing from 200 to 250 g were used for this purpose. The animals were accommodated individually in special test compartments and the base of the tail was exposed to the focused ray of an analgesia meter (model 2011, Rhema Labortechnik, Hofheim, Germany). 10 animals were used per group. Before a substance according to the invention was administered, the withdrawal latency (time from switching on of the focal ray to the sudden withdrawal of the tail) was determined twice at an interval of five minutes and the mean value was defined as the control latency time. The intensity of the focal ray was chosen so that the control latency time was 7 to 9 seconds. Measurement of the withdrawal latency was then repeated 10, 20, 30 and 60 minutes after peroral administration of substance. The antinociceptive action of the test substance was determined as the increase in the withdrawal latency time according to the following formula: MPE[%]=[(T1−T0)/(T2−T0)]×100 where: T0=control latency time before administration of substance, T1=latency time after administration of substance, T2=maximum exposure time to the focal ray (30 seconds), MPE=maximum possible effect.
Variance analysis (repeated measures ANOVA) was used to test for statistically significant differences between the substance group and the vehicle group. The level of significance was set at ≦0.05.

KCNQ2/3 channels = target: T1, KCNQ2/3 channels (Homo sapiens, UniProt O43525+O43526); experiment: Fluorescence assay using a voltage sensitive dye (fluorimetry); assay type: cell-based; conditions: CHO-K1 cells expressing KCNQ2/3 channels; for EC50: agonistic activity; for Emax / Fluorimetry % efficacy (retigabine 50 μM = 100%): retigabine 50 μM = 100%; for Emax: read-out: Fluorimetry % efficacy (retigabine 50 μM = 100%)
T1 construct: expressed in transfected cells
How it was run: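 Agonist EC50s come from the F2 vs F1 fluorescence comparison, F2 taken at the peak after KCl depolarisation (92 mM final) and F1 after 30 min compound exposure at room temperature. Assay uses KCNQ2/3-expressing CHO-K1 cells stained 45 min with a red voltage-sensitive dye in pH 7.4 ES buffer.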

With `O=C(NCC1C2CCC1CC2)c1cccnc1SCCC(F)(F)c1ccc(F)cc1` (centres unmarked) [compound 164, N-(7-Bicyclo[2.2.1]heptanyl-methyl)-2-[[3,3-difluoro-3-(4-fluorophenyl)-propyl]sulfanyl]-pyridine-3-carboxylic acid amide] the inhibition in vivo at 4.64 mg/kg (Sprague-Dawley rats; MPE) was 20%, the EC50 (KCNQ2/3 channels) was 32 nM and the Emax (KCNQ2/3 channels) was 287%.
Work on `CC(CCc1cccc(C(F)(F)F)c1)Sc1ncccc1C(=O)NCc1cccs1` (centres unmarked) [compound 107, 2-[[1-Methyl-3-[3-(trifluoromethyl)phenyl]-propyl]sulfanyl]-N-(thiophen-2-yl-methyl)-pyridine-3-carboxylic acid amide] yielded an inhibition in vivo at 21.5 mg/kg (Sprague-Dawley rats; dose 21.5 mg/kg, MPE) of 20%, an EC50 (KCNQ2/3 channels) of 57 nM and an Emax (KCNQ2/3 channels) of 119%.
For `CC(C)CCNC(=O)c1cccnc1SCCC(F)(F)c1ccc(F)cc1` [compound 169], the “Low-intensity tail flick rat p.o. ED50” value (Sprague-Dawley rats) was “ED50 2.7 mg/kg”, the EC50 (KCNQ2/3 channels) was 19 nM and the “Fluorimetry % efficacy (retigabine 50 μM = 100%)” value (KCNQ2/3 channels) was 224%.
`O=C(NCC1CCCCC1)c1cccnc1SCCCc1ccc(F)cc1` [compound 40, N-(Cyclohexyl-methyl)-2-[3-(4-fluorophenyl)-propylsulfanyl]-pyridine-3-carboxylic acid amide] gave an inhibition in vivo at 21.5 mg/kg (Sprague-Dawley rats; dose 21.5 mg/kg, MPE) of 26%, an EC50 (KCNQ2/3 channels) of 129 nM and an Emax (KCNQ2/3 channels) of 144%.
Molecule `O=C(NCC1CCCCO1)c1cccnc1SCCCc1ccc(F)cc1` (centres unmarked) [compound 134, 2-[3-(4-Fluorophenyl)-propylsulfanyl]-N-(tetrahydro-pyran-2-yl-methyl)-pyridine-3-carboxylic acid amide] has an inhibition in vivo at 21.5 mg/kg (Sprague-Dawley rats; dose 21.5 mg/kg, MPE) of 40%, an EC50 (KCNQ2/3 channels) of 268 nM and an Emax (KCNQ2/3 channels) of 224%.
In the case of `O=C(NCC1CC2CCC1C2)c1cccnc1SCCCc1ccc(F)cc1` (centres unmarked) [compound 51], the “Low-intensity tail flick rat p.o. % effect (dose [mg/kg])” value (Sprague-Dawley rats; dose 21.5 mg/kg, MPE) is reported as 49 (21.5) %, the EC50 (KCNQ2/3 channels) is reported as 198 nM and the “Fluorimetry % efficacy (retigabine 50 μM = 100%)” value (KCNQ2/3 channels) is reported as 192%.
In the case of `O=C(NCc1ccc(F)cc1)c1cccnc1SCCCc1ccc(F)cc1` [compound 65, N-[(4-Fluorophenyl)-methyl]-2-[3-(4-fluorophenyl)-propylsulfanyl]-pyridine-3-carboxylic acid amide], the inhibition in vivo at 10 mg/kg (Sprague-Dawley rats; MPE) is reported as 49%, the EC50 (KCNQ2/3 channels) is reported as 40 nM and the Emax (KCNQ2/3 channels) is reported as 97%.
Work on `CC(C)(C)CCNC(=O)c1cccnc1SCCC(F)(F)c1ccc(F)cc1` [compound 116, 2-[[3,3-Difluoro-3-(4-fluorophenyl)-propyl]sulfanyl]-N-(3,3-dimethyl-butyl)-pyridine-3-carboxylic acid amide] yielded an ED50 (Sprague-Dawley rats) of 5.4 mg/kg, an EC50 (KCNQ2/3 channels) of 62 nM and an Emax (KCNQ2/3 channels) of 186%.
In the case of `CCCCNC(=O)c1cccnc1SCCC(F)(F)c1ccc(F)cc1` [compound 170, N-Butyl-2-[[3,3-difluoro-3-(4-fluorophenyl)-propyl]sulfanyl]-pyridine-3-carboxylic acid amide], the inhibition in vivo at 4.64 mg/kg (Sprague-Dawley rats; MPE) is reported as 20%, the EC50 (KCNQ2/3 channels) is reported as 24 nM and the Emax (KCNQ2/3 channels) is reported as 229%.
`O=C(NCC1CC2CCC1C2)c1cccnc1SCCCc1cccc(C(F)(F)F)c1` (centres unmarked) [compound 27, N-(5-Bicyclo[2.2.1]heptanyl-methyl)-2-[3-[3-(trifluoromethyl)phenyl]-propylsulfanyl]-pyridine-3-carboxylic acid amide] gave an inhibition in vivo at 10 mg/kg (Sprague-Dawley rats; MPE) of 18%, an EC50 (KCNQ2/3 channels) of 85 nM and an Emax (KCNQ2/3 channels) of 210%.
Molecule `O=C(NCc1ccc(F)cc1)c1cccnc1SCCC(F)(F)c1ccc(F)cc1` [compound 124, 2-[[3,3-Difluoro-3-(4-fluorophenyl)-propyl]sulfanyl]-N-[(4-fluorophenyl)-methyl]-pyridine-3-carboxylic acid amide] has an ED50 (Sprague-Dawley rats) of 3.5 mg/kg, an EC50 (KCNQ2/3 channels) of 17 nM and an Emax (KCNQ2/3 channels) of 114%.
`O=C(NCC1CC2CCC1C2)c1cccnc1SCCCc1ccc(C(F)(F)F)c(F)c1` (centres unmarked) [compound 53, N-(5-Bicyclo[2.2.1]heptanyl-methyl)-2-[3-[3-fluoro-4-(trifluoromethyl)-phenyl]-propylsulfanyl]-pyridine-3-carboxylic acid amide] was tested, and the inhibition in vivo at 10 mg/kg (Sprague-Dawley rats; MPE) was 0%, the EC50 (KCNQ2/3 channels) was 302 nM and the Emax (KCNQ2/3 channels) was 220%.
Work on `O=C(NCC1CCCCO1)c1cccnc1SCCC(F)(F)c1ccc(F)cc1` (centres unmarked) [compound 180, 2-[[3,3-Difluoro-3-(4-fluorophenyl)-propyl]sulfanyl]-N-(tetrahydro-pyran-2-yl-methyl)-pyridine-3-carboxylic acid amide] yielded an inhibition in vivo at 10 mg/kg (Sprague-Dawley rats; MPE) of 64%, an EC50 (KCNQ2/3 channels) of 47 nM and an Emax (KCNQ2/3 channels) of 224%.
Molecule `CC(C)CCNC(=O)c1cccnc1SCCCc1ccc(F)cc1` [compound 133, 2-[3-(4-Fluorophenyl)-propylsulfanyl]-N-(3-methyl-butyl)-pyridine-3-carboxylic acid amide] has an inhibition in vivo at 10 mg/kg (Sprague-Dawley rats; MPE) of 61%, an EC50 (KCNQ2/3 channels) of 106 nM and an Emax (KCNQ2/3 channels) of 185%.
With `O=C(NCC1CC2CCC1C2)c1cccnc1SCCCc1ccc(F)c(C(F)(F)F)c1` (centres unmarked) [compound 54, N-(5-Bicyclo[2.2.1]heptanyl-methyl)-2-[3-[4-fluoro-3-(trifluoromethyl)-phenyl]-propylsulfanyl]-pyridine-3-carboxylic acid amide] the inhibition in vivo at 10 mg/kg (Sprague-Dawley rats; MPE) was 20%, the EC50 (KCNQ2/3 channels) was 133 nM and the Emax (KCNQ2/3 channels) was 240%.
`CCN1CCOc2ccc(CNC(=O)c3cccnc3SCCCc3ccc(F)cc3)cc21` [compound 161, N-[(4-Ethyl-3,4-dihydro-2H-[1,4]benzoxazin-6-yl)-methyl]-2-[3-(4-fluorophenyl)-propylsulfanyl]-pyridine-3-carboxylic acid amide] showed an EC50 (KCNQ2/3 channels) of 145 nM and an Emax (KCNQ2/3 channels) of 67%.
Molecule `O=C(NCc1cccs1)c1cccnc1SCCCc1ccc2ccccc2c1` [compound 102, 2-(3-Naphthalen-2-yl-propylsulfanyl)-N-(thiophen-2-yl-methyl)-pyridine-3-carboxylic acid amide] has an EC50 (KCNQ2/3 channels) of 456 nM and an Emax (KCNQ2/3 channels) of 111%.
In the case of `O=C(NCC1CC2CCC1C2)c1cccnc1SCCCc1cc(F)c(F)c(F)c1` (centres unmarked) [compound 68, N-(5-Bicyclo[2.2.1]heptanyl-methyl)-2-[3-(3,4,5-trifluoro-phenyl)-propylsulfanyl]-pyridine-3-carboxylic acid amide], the inhibition in vivo at 10 mg/kg (Sprague-Dawley rats; MPE) is reported as 32%, the EC50 (KCNQ2/3 channels) is reported as 65 nM and the Emax (KCNQ2/3 channels) is reported as 280%.
In the case of `COC(CNC(=O)c1cccnc1SCCCc1ccc(F)cc1)C(C)(C)C` (centres unmarked) [compound 182, 2-[3-(4-Fluorophenyl)-propylsulfanyl]-N-(2-methoxy-3,3-dimethyl-butyl)-pyridine-3-carboxylic acid amide], the EC50 (KCNQ2/3 channels) is reported as 366 nM and the Emax (KCNQ2/3 channels) is reported as 110%.
Molecule `CC1CCCC(CNC(=O)c2cccnc2SCCCc2ccc(F)cc2)C1` (centres unmarked) [compound 123, 2-[3-(4-Fluorophenyl)-propylsulfanyl]-N-[(3-methyl-cyclohexyl)-methyl]-pyridine-3-carboxylic acid amide] has an EC50 (KCNQ2/3 channels) of 155 nM and an Emax (KCNQ2/3 channels) of 168%.
In the case of `CC(CCc1ccc(F)cc1)Sc1ncccc1C(=O)NCC1C2CCC1CC2` (centres unmarked) [compound 178, N-(7-Bicyclo[2.2.1]heptanyl-methyl)-2-[[3-(4-fluorophenyl)-1-methyl-propyl]sulfanyl]-pyridine-3-carboxylic acid amide], the EC50 (KCNQ2/3 channels) is reported as 96 nM and the Emax (KCNQ2/3 channels) is reported as 270%.
`O=C(NCc1cccc(N2CCOCC2)c1)c1cccnc1SCCCc1ccc(F)cc1` [compound 138, 2-[3-(4-Fluorophenyl)-propylsulfanyl]-N-[(3-morpholin-4-yl-phenyl)-methyl]-pyridine-3-carboxylic acid amide] showed an EC50 (KCNQ2/3 channels) of 417 nM and an Emax (KCNQ2/3 channels) of 92%.
In the case of `O=C(NCC1CC2CCC1C2)c1cccnc1SCCCc1ccccc1` (centres unmarked) [compound 33, N-(5-Bicyclo[2.2.1]heptanyl-methyl)-2-(3-phenyl-propylsulfanyl)-pyridine-3-carboxylic acid amide], the EC50 (KCNQ2/3 channels) is reported as 451 nM and the Emax (KCNQ2/3 channels) is reported as 242%.
